The values below come from PubChem BioAssay AID1918994 (Molecular Pharmacology Branch, DTP, NCI, 2023).

Where “and” joins values, the source holds several entries; their conditions need not be identical. Equal values may be shown once.

The test concerns 292921-168-R-J2-PDC complex spheroid growth. In words: Anticancer human tumor 292921-168-R-J2-PDC patient-derived pancreatic carcinoma cell line growth inhibition [AhR]. The settings on record: for viability, T/C: stronger effect = lower value. Summed up: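 Spheroids combined tumor cells with HUVEC endothelial cells and human MSCs as stroma. AhR antagonists were paired with standard or investigational drugs, each dosed in half-log steps down from near clinical Cmax, or from 10 microM where Cmax was unknown.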

The mark [1] stands for this setting: curve of first compound, second compound 0.1 µM.
Where [2] appears, read: curve of first compound, second compound 0.316 µM.
Setting [3] is: curve of first compound, second compound 1 µM.
Setting [4] is: curve of first compound, second compound 3.16 µM.
[5] abbreviates: curve of first compound, second compound 10 µM.
Setting [6] is: second compound 0.1 µM, first compound 0.0316 µM.
The mark [7] stands for this setting: second compound 0.1 µM, first compound 0.1 µM.
[8] abbreviates: second compound 0.316 µM, first compound 0.0316 µM.
[9] abbreviates: second compound 0.316 µM, first compound 0.1 µM.
Where [10] appears, read: second compound 1 µM, first compound 0.0316 µM.
[11] abbreviates: second compound 1 µM, first compound 0.1 µM.
Setting [12] is: second compound 3.16 µM, first compound 0.0316 µM.
Setting [13] is: second compound 3.16 µM, first compound 0.1 µM.
The mark [14] stands for this setting: second compound 10 µM, first compound 0.0316 µM.
[15] abbreviates: second compound 10 µM, first compound 0.1 µM.

The IC50 is the concentration that gives 50% inhibition. Usually viability, T/C stands for the ratio of treated to control.
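Further: spheroids exposed to compounds for seven days after three days of growth.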

For `Cn1ncnc1C1c2n[nH]c(=O)c3cc(F)cc(c23)NC1c1ccc(F)cc1` (centres undefined) + Cc1cncc(-c2nc(NCCc3c[nH]c4ccccc34)c3ncn(C(C)C)c3n2)c1, the IC50 runs as follows: under setting [1], over 100 nM; under setting [2], over 100 nM; under setting [3], over 100 nM; under setting [4], over 100 nM; under setting [5], 35.1 nM. Further, the viability, T/C (second compound 0.1 µM, first compound 0.000316 µM) was 94.3%; the viability, T/C (second compound 0.1 µM, first compound 0.001 µM) was 96.7%; the viability, T/C (second compound 0.1 µM, first compound 0.00316 µM) is 86.5%; the viability, T/C (second compound 0.1 µM, first compound 0.01 µM) was 95.5%; the viability, T/C under setting [6] is 83.9%; the viability, T/C under setting [7] is 82.6%. For the same compound, the viability, T/C reads like this: (second compound 0.316 µM, first compound 0.000316 µM) 91.4%; (second compound 0.316 µM, first compound 0.001 µM) 102%; (second compound 0.316 µM, first compound 0.00316 µM) 83.6%; (second compound 0.316 µM, first compound 0.01 µM) 89.2%; under setting [8], 83.7%; under setting [9], 76.7%. Further, the viability, T/C was 80.8% (second compound 1 µM, first compound 0.000316 µM); 87.3% (second compound 1 µM, first compound 0.001 µM); 85.6% (second compound 1 µM, first compound 0.00316 µM); 73.8% (second compound 1 µM, first compound 0.01 µM); 74.5% under setting [10]; 81.9% under setting [11]. Besides, the viability, T/C by setting is: (second compound 3.16 µM, first compound 0.000316 µM) 68.7%; (second compound 3.16 µM, first compound 0.001 µM) 71.4%; (second compound 3.16 µM, first compound 0.00316 µM) 72.3%; (second compound 3.16 µM, first compound 0.01 µM) 56.2%; under setting [12], 60.1%; under setting [13], 66.2%. Moreover, the viability, T/C reads like this: (second compound 10 µM, first compound 0.000316 µM) 50.8%; (second compound 10 µM, first compound 0.001 µM) 54.4%; (second compound 10 µM, first compound 0.00316 µM) 55.5%; (second compound 10 µM, first compound 0.01 µM) 52.5%; under setting [14], 47.7%; under setting [15], 48%.

As for `Nc1ccccc1NC(=O)c1ccc(CNC(=O)OCc2cccnc2)cc1`, the viability, T/C was 76.9% and 70.7% and 72.6% (compound 0.0316 µM); 61.6% and 61% and 53% (compound 0.1 µM); 44.2% and 57.2% and 42.1% (compound 0.316 µM); 38.7% and 39.4% and 26.1% (compound 1 µM); 24.4% and 26.4% and 21.3% (compound 3.16 µM); 11.8% and 10.3% and 8.62% (compound 10 µM). In addition, the IC50 (curve of compound) was 267 nM and 460 nM and 151 nM.

As to `CC(C)CC(NC(=O)C(Cc1ccccc1)NC(=O)c1cnccn1)B(O)O` (centres undefined) + CC(CO)NC(=O)c1cc(-c2ccc(Cl)cc2)nn(-c2cnn(C)c2)c1=O, the IC50 by setting is: under setting [1], 6.1 nM; under setting [2], 5.42 nM; under setting [3], 6.01 nM; under setting [4], 5.29 nM; under setting [5], 4.43 nM. Moreover, the viability, T/C runs as follows: (second compound 0.1 µM, first compound 0.000949 µM) 105%; (second compound 0.1 µM, first compound 0.003 µM) 107%; (second compound 0.1 µM, first compound 0.00949 µM) 15.2%; (second compound 0.1 µM, first compound 0.03 µM) 2.8%; (second compound 0.1 µM, first compound 0.0949 µM) 1.2%; (second compound 0.1 µM, first compound 0.3 µM) 0.49%. Further, the viability, T/C runs as follows: (second compound 0.316 µM, first compound 0.000949 µM) 109%; (second compound 0.316 µM, first compound 0.003 µM) 90.4%; (second compound 0.316 µM, first compound 0.00949 µM) 11.8%; (second compound 0.316 µM, first compound 0.03 µM) 1.8%; (second compound 0.316 µM, first compound 0.0949 µM) 0.5%; (second compound 0.316 µM, first compound 0.3 µM) 0.59%. The viability, T/C (second compound 1 µM, first compound 0.000949 µM) was 101%; the viability, T/C (second compound 1 µM, first compound 0.003 µM) is 102%; the viability, T/C (second compound 1 µM, first compound 0.00949 µM) was 15.8%; the viability, T/C (second compound 1 µM, first compound 0.03 µM) was 2.98%; the viability, T/C (second compound 1 µM, first compound 0.0949 µM) is 1.25%; the viability, T/C (second compound 1 µM, first compound 0.3 µM) is 1.42%. In addition, the viability, T/C by setting is: (second compound 3.16 µM, first compound 0.000949 µM) 85.8%; (second compound 3.16 µM, first compound 0.003 µM) 85.6%; (second compound 3.16 µM, first compound 0.00949 µM) 13.2%; (second compound 3.16 µM, first compound 0.03 µM) 2.3%; (second compound 3.16 µM, first compound 0.0949 µM) 2.01%; (second compound 3.16 µM, first compound 0.3 µM) 1.89%. The viability, T/C is, setting by setting: (second compound 10 µM, first compound 0.000949 µM) 77.6%; (second compound 10 µM, first compound 0.003 µM) 70%; (second compound 10 µM, first compound 0.00949 µM) 11%; (second compound 10 µM, first compound 0.03 µM) 1.4%; (second compound 10 µM, first compound 0.0949 µM) 2.28%; (second compound 10 µM, first compound 0.3 µM) 2.01%.

Consider `COc1cc(Nc2ncc3c(n2)-c2ccc(Cl)cc2C(c2c(F)cccc2OC)=NC3)ccc1C(=O)O` + CC(CO)NC(=O)c1cc(-c2ccc(Cl)cc2)nn(-c2cnn(C)c2)c1=O, for which the IC50 under setting [1] was under 31.6 nM; the IC50 under setting [2] was under 31.6 nM; the half-maximal inhibitory concentration (IC50) under setting [3] was under 31.6 nM; the IC50 under setting [4] is under 31.6 nM; the IC50 under setting [5] is under 31.6 nM. Besides, the viability, T/C reads like this: under setting [6], 51%; under setting [7], 41.9%; (second compound 0.1 µM, first compound 0.316 µM) 44.8%; (second compound 0.1 µM, first compound 1 µM) 40.1%; (second compound 0.1 µM, first compound 3.16 µM) 40.7%; (second compound 0.1 µM, first compound 10 µM) 31.4%. In addition, the viability, T/C by setting is: under setting [8], 50.8%; under setting [9], 40.1%; (second compound 0.316 µM, first compound 0.316 µM) 44.1%; (second compound 0.316 µM, first compound 1 µM) 40.9%; (second compound 0.316 µM, first compound 3.16 µM) 34.3%; (second compound 0.316 µM, first compound 10 µM) 33.3%. Besides, the viability, T/C by setting is: under setting [10], 52.5%; under setting [11], 40.3%; (second compound 1 µM, first compound 0.316 µM) 39.3%; (second compound 1 µM, first compound 1 µM) 47.9%; (second compound 1 µM, first compound 3.16 µM) 37.3%; (second compound 1 µM, first compound 10 µM) 30%. Also, the viability, T/C was 45.3% under setting [12]; 36.2% under setting [13]; 44.3% (second compound 3.16 µM, first compound 0.316 µM); 42% (second compound 3.16 µM, first compound 1 µM); 36.8% (second compound 3.16 µM, first compound 3.16 µM); 28.4% (second compound 3.16 µM, first compound 10 µM). For the same compound, the viability, T/C is, setting by setting: under setting [14], 38.5%; under setting [15], 33.4%; (second compound 10 µM, first compound 0.316 µM) 37.3%; (second compound 10 µM, first compound 1 µM) 38.8%; (second compound 10 µM, first compound 3.16 µM) 32.6%; (second compound 10 µM, first compound 10 µM) 26.4%.

Turning to `Nc1ncn(C2CC(O)C(CO)S2)c(=O)n1` (centres undefined), the viability, T/C is 108% and 106% and 99.4% (compound 0.000949 µM); 111% and 90.8% and 101% (compound 0.003 µM); 107% and 98.6% and 93.5% (compound 0.00949 µM); 90.9% and 104% and 96.8% (compound 0.03 µM); 90.8% and 93.8% and 95.5% (compound 0.0949 µM); 88.6% and 81.2% and 78.3% (compound 0.3 µM). Besides, the IC50 (curve of compound) is over 300 nM.
